The test relates to Mycobacterium tuberculosis. Description: Anti-mycobacterial activity against Mycobacterium tuberculosis mc2 6206 expressing autoluminescent luciferase infected in human THP-1 cells assessed as reduction in bacterial burden pretreated for 24 hrs followed by bacterial infection measured for 5 days post-infection with re-current replacement of media with compound for every 2 days by luminescence based assay. The class given is functional, organism-based. Particulars: dose 0.5-5 µM, time 6.0 day.

These results are taken from ChEMBL document CHEMBL5523733, “Small Molecule Targeting PPM1A Activates Autophagy for Mycobacterium tuberculosis Host-Directed Therapy” (J Med Chem, 2024).

As for `CCOc1ccc2c(c1)c[n+](CCO)c1ccc(F)cc21.[Br-]`, the Activity result was “Dose-Dependent Effect”.
